Measurements from patent EP0068680A1, “Antibiotics” (BEECHAM GROUP PLC, priority 1981, dated 1983).
≈ marks a conversion by molar mass, not a printed value. Where two headings read alike, the source gives them in different places.

How the values were obtained:
M. suipneumoniae LABER = experiment: MIC against Mycoplasma in vitro (agar); format: cell-based; conditions: Friis broth solidified with 0.9% agarose, 6 days at 37°C
[1] = test system: Pasteurella multocida 1633; experiment: MIC against Human Bacteria in vitro (agar dilution); format: cell-based; conditions: agar with 5% chocolated horse blood, 18 hours at 37°C
[2] = test system: M. bovigenitalium ATCC 14173; experiment: MIC against Mycoplasma in vitro (agar); format: cell-based; conditions: Friis broth solidified with 0.9% agarose, 6 days at 37°C
[3] = test system: Staph. aureus B4 (pen. resistant); experiment: MIC against Veterinary Bacteria in vitro (agar dilution)
Procedure: (§1) The activity of the compounds of the Examples against various veterinarily important bacteria, was assayed in vitro using two-fold serial dilutions in Diagnostic Sensitivity Test Agar inoculated with 10^4 organisms.

M. dispar NCTC 10125 = experiment: MIC against Mycoplasma in vitro (agar); format: cell-based; conditions: Friis broth solidified with 0.9% agarose, 6 days at 37°C
[4] = test system: Ps. aeruginosa NCTC 10662; experiment: MIC against Human Bacteria in vitro (agar dilution); format: cell-based; conditions: 18 hours at 37°C
K. aerogenes A = experiment: as above; format: cell-based; conditions: agar with 5% chocolated horse blood, 18 hours at 37°C
Strep. pneumoniae CN33 = experiment: as above; format: cell-based; conditions: agar with 5% chocolated horse blood, 18 hours at 37°C
Strep. agalactiae SPA1 = experiment: MIC against Veterinary Bacteria in vitro (agar dilution)
Procedure: as §1

[5] = test system: Corynebacterium xerosis 9755; experiment: MIC against Human Bacteria in vitro (agar dilution); format: cell-based; conditions: agar with 5% chocolated horse blood, 18 hours at 37°C
[6] = test system: Erysipelothrix rhusiopathiae NCTC 8163; experiment: MIC against Veterinary Bacteria in vitro (agar dilution)
Procedure: as §1

P. mirabilis 889 = experiment: MIC against Human Bacteria in vitro (agar dilution); format: cell-based; conditions: agar with 5% chocolated horse blood, 18 hours at 37°C
Staph. aureus Oxford [7] = experiment: as above; format: cell-based; conditions: agar with 5% chocolated horse blood, 18 hours at 37°C
M. suipneumoniae NB12 = experiment: MIC against Mycoplasma in vitro (agar); format: cell-based; conditions: Friis broth solidified with 0.9% agarose, 6 days at 37°C
Staph. aureus Russell = experiment: MIC against Human Bacteria in vitro (agar dilution); format: cell-based; conditions: agar with 5% chocolated horse blood, 18 hours at 37°C
Strep. uberis SPU1 = experiment: MIC against Veterinary Bacteria in vitro (agar dilution)
Procedure: as §1

E. coli NCTC 10418 [8] = experiment: as above
Procedure: as §1

[9] = test system: M. suipneumoniae ATCC 25095; experiment: MIC against Mycoplasma in vitro (agar); format: cell-based; conditions: Friis broth solidified with 0.9% agarose, 6 days at 37°C
Staph. aureus Oxford [10] = experiment: MIC against Veterinary Bacteria in vitro (agar dilution)
Procedure: as §1

E. coli E1 = experiment: as above
Procedure: as §1

Past. multocida PA2 = experiment: as above
Procedure: as §1

M. bovis NCTC 10131 = experiment: microbe, parasite or virus in culture; format: cell-based
[11] = test system: Strep. suis (group D) SPS11; experiment: MIC against Veterinary Bacteria in vitro (agar dilution)
Procedure: as §1

[12] = test system: M. suipneumoniae PW/C/210; experiment: MIC against Mycoplasma in vitro (agar); format: cell-based; conditions: Friis broth solidified with 0.9% agarose, 6 days at 37°C
M. suipneumoniae HK(2) = experiment: MIC against Mycoplasma in vitro (agar); format: cell-based; conditions: Friis broth solidified with 0.9% agarose, 6 days at 37°C
Past. haemolytica PA5 = experiment: MIC against Veterinary Bacteria in vitro (agar dilution)
Procedure: as §1

M. suipneumoniae Str. 11 = experiment: MIC against Mycoplasma in vitro (agar); format: cell-based; conditions: Friis broth solidified with 0.9% agarose, 6 days at 37°C
Sarcina lutea 8340 = experiment: MIC against Human Bacteria in vitro (agar dilution); format: cell-based; conditions: agar with 5% chocolated horse blood, 18 hours at 37°C
Bacillus subtilis 6633 = experiment: as above; format: cell-based; conditions: agar with 5% chocolated horse blood, 18 hours at 37°C
Staph. aureus W2827 = experiment: as above; format: cell-based; conditions: agar with 5% chocolated horse blood, 18 hours at 37°C
E. coli ESS = experiment: as above; format: cell-based; conditions: agar with 5% chocolated horse blood, 18 hours at 37°C
[13] = test system: Neisseria catarrhalis 1502; experiment: as above; format: cell-based; conditions: agar with 5% chocolated horse blood, 18 hours at 37°C
[14] = test system: Haemophilus influenzae Q1; experiment: as above; format: cell-based; conditions: agar with 5% chocolated horse blood, 18 hours at 37°C
M. suipneumoniae TAM 6N = experiment: MIC against Mycoplasma in vitro (agar); format: cell-based; conditions: Friis broth solidified with 0.9% agarose, 6 days at 37°C
S. typhimurium S18 = experiment: MIC against Veterinary Bacteria in vitro (agar dilution)
Procedure: as §1

[15] = test system: M. suipneumoniae J2206/183^b; experiment: MIC against Mycoplasma in vitro (agar); format: cell-based; conditions: Friis broth solidified with 0.9% agarose, 6 days at 37°C
M. hyorhinis ATCC 23234 = experiment: MIC against Mycoplasma in vitro (agar); format: cell-based; conditions: Friis broth solidified with 0.9% agarose, 6 days at 37°C
Strep. pyogenes B2788 = experiment: MIC against Human Bacteria in vitro (agar dilution); format: cell-based; conditions: agar with 5% chocolated horse blood, 18 hours at 37°C
E. coli NCTC 10418 [16] = experiment: as above; format: cell-based; conditions: 18 hours at 37°C
Bord. bronchiseptica B08 = experiment: MIC against Veterinary Bacteria in vitro (agar dilution)
Procedure: as §1

S. dublin S7 = experiment: as above
Procedure: as §1

[17] = Mesomycoplasma hyopneumoniae, 144 h, read-out: MIC
[18] = Staphylococcus aureus, read-out: MIC
[19] = agar with 5% chocolated horse blood

Question: Which results are given for `CC(=CC(=O)OCCCCC=CCCC(=O)O)CC1OCC(CC2OC2C(C)C(C)O)C(O)C1O` (stereo not shown) [Example 1, pseudomonic acid D]?
Answer: MIC (M. suipneumoniae LABER; [17]): 2.5 µg/mL (≈ 5.01 µM); MIC ([1]; read-out: MIC): 0.25 µg/mL (≈ 0.501 µM); MIC ([2]; 144 h, read-out: MIC): 0.1 µg/mL (≈ 0.201 µM); MIC ([3]; Staphylococcus aureus, 18 h): 0.312 µg/mL (≈ 0.626 µM); MIC (M. dispar NCTC 10125; 144 h, read-out: MIC): 2.5 µg/mL (≈ 5.01 µM); MIC ([4]; Pseudomonas aeruginosa, NCTC10662, agar with 5% chocolated horse blood, read-out: MIC): > 25 µg/mL; MIC (K. aerogenes A; Klebsiella aerogenes, read-out: MIC): > 25 µg/mL; MIC (Strep. pneumoniae CN33; Streptococcus pneumoniae, read-out: MIC): 0.25 µg/mL (≈ 0.501 µM); MIC (Strep. agalactiae SPA1; Streptococcus agalactiae, SPA1, 18 h): 0.625 µg/mL (≈ 1.25 µM); MIC ([5]; read-out: MIC): > 25 µg/mL; MIC ([6]; Erysipelothrix rhusiopathiae, NCTC8163, 18 h): 10 µg/mL (≈ 20.1 µM); MIC (P. mirabilis 889; Proteus mirabilis, read-out: MIC): > 25 µg/mL; MIC (Staph. aureus Oxford [7]; [18]): 1 µg/mL (≈ 2.01 µM); MIC (M. suipneumoniae NB12; [17]): 1 µg/mL (≈ 2.01 µM); MIC (Staph. aureus Russell; [18]): 1 µg/mL (≈ 2.01 µM); MIC (Strep. uberis SPU1; Streptococcus uberis, SPU1, 18 h): 0.039 µg/mL (≈ 0.0782 µM); MIC (E. coli NCTC 10418 [8]; Escherichia coli, NCTC10418, 18 h): > 20 µg/mL; MIC ([9]; Mesomycoplasma hyopneumoniae, ATCC25095, 144 h, read-out: MIC): 1 µg/mL (≈ 2.01 µM); MIC (Staph. aureus Oxford [10]; Staphylococcus aureus, 18 h): 0.312 µg/mL (≈ 0.626 µM); MIC (E. coli E1; Escherichia coli, E1, 18 h): > 20 µg/mL; MIC (Past. multocida PA2; Pasteurella multocida, PA2, 18 h): < 0.019 µg/mL; MIC (M. bovis NCTC 10131; NCTC10131, 144 h): 0.05 µg/mL (≈ 0.1 µM); MIC ([11]; Streptococcus suis, 18 h): 1.25 µg/mL (≈ 2.51 µM); MIC [12, 17]: 1 µg/mL (≈ 2.01 µM); MIC (M. suipneumoniae HK(2); [17]): 5 µg/mL (≈ 10 µM); MIC (Past. haemolytica PA5; Mannheimia haemolytica, PA5, 18 h): 2.5 µg/mL (≈ 5.01 µM); MIC (M. suipneumoniae Str. 11; [17]): 1 µg/mL (≈ 2.01 µM); MIC (Sarcina lutea 8340; Micrococcus luteus, read-out: MIC): > 25 µg/mL; MIC (Bacillus subtilis 6633; read-out: MIC): 1 µg/mL (≈ 2.01 µM); MIC (Staph. aureus W2827; [18]): 1 µg/mL (≈ 2.01 µM); MIC (E. coli ESS; Escherichia coli, read-out: MIC): 1 µg/mL (≈ 2.01 µM); MIC ([13]; read-out: MIC): 0.5 µg/mL (≈ 1 µM); MIC ([14]; read-out: MIC): 0.25 µg/mL (≈ 0.501 µM); MIC (M. suipneumoniae TAM 6N; Mesomycoplasma hyopneumoniae, TAM6N, 144 h, read-out: MIC): 5 µg/mL (≈ 10 µM); MIC (S. typhimurium S18; Salmonella enterica, TYPHIMURIUM, 18 h): > 20 µg/mL; MIC [15, 17]: 2.5 µg/mL (≈ 5.01 µM); MIC (M. hyorhinis ATCC 23234; Mesomycoplasma hyorhinis, ATCC23234, 144 h, read-out: MIC): 1 µg/mL (≈ 2.01 µM); MIC (Strep. pyogenes B2788; Streptococcus pyogenes, read-out: MIC): 0.5 µg/mL (≈ 1 µM); MIC (E. coli NCTC 10418 [16]; Escherichia coli, NCTC10418, agar with 5% chocolated horse blood, read-out: MIC): > 25 µg/mL; MIC (Bord. bronchiseptica B08; Bordetella bronchiseptica, B08, 18 h): 10 µg/mL (≈ 20.1 µM); MIC (S. dublin S7; Salmonella enterica, S7, 18 h): > 20 µg/mL

Question: What does the source list for Methyl pseudomonate D [Example 2]?
Answer: MIC (M. suipneumoniae LABER): 2.5 µg/mL; MIC [1]: 0.5 µg/mL; MIC [2]: 0.1 µg/mL; MIC ([3]; Staph. aureus B4 (pen. resistant), Diagnostic Sensitivity Test Agar, 18 hours at 37°C): 80 µg/mL; MIC (M. dispar NCTC 10125): 1.0 µg/mL; MIC [4, 19]: >100 µg/mL; MIC (K. aerogenes A): >100 µg/mL; MIC (Strep. pneumoniae CN33): 2.5 µg/mL; MIC (Strep. agalactiae SPA1; Strep. agalactiae SPA1, Diagnostic Sensitivity Test Agar, 18 hours at 37°C): 0.312 µg/mL; MIC [5]: >100 µg/mL; MIC ([6]; Erysipelothrix rhusiopathiae NCTC 8163, Diagnostic Sensitivity Test Agar, 18 hours at 37°C): 20 µg/mL; MIC (P. mirabilis 889): >100 µg/mL; MIC (Staph. aureus Oxford [7]): 0.5 µg/mL; MIC (M. suipneumoniae NB12): 5.0 µg/mL; MIC (Staph. aureus Russell): 2.5 µg/mL; MIC (Strep. uberis SPU1; Strep. uberis SPU1, Diagnostic Sensitivity Test Agar, 18 hours at 37°C): 5.0 µg/mL; MIC (E. coli NCTC 10418 [8]; E. coli NCTC 10418, Diagnostic Sensitivity Test Agar, 18 hours at 37°C): 40 µg/mL; MIC [9]: 2.5 µg/mL; MIC (Staph. aureus Oxford [10]; Staph. aureus Oxford, Diagnostic Sensitivity Test Agar, 18 hours at 37°C): 0.625 µg/mL; MIC (E. coli E1; E. coli E1, Diagnostic Sensitivity Test Agar, 18 hours at 37°C): 40 µg/mL; MIC (Past. multocida PA2; Past. multocida PA2, Diagnostic Sensitivity Test Agar, 18 hours at 37°C): 2.5 µg/mL; MIC (M. bovis NCTC 10131; M. bovis NCTC 10131, Friis broth solidified with 0.9% agarose, 6 days at 37°C): 0.05 µg/mL; MIC ([11]; Strep. suis (group D) SPS11, Diagnostic Sensitivity Test Agar, 18 hours at 37°C): 0.625 µg/mL; MIC [12]: 2.5 µg/mL; MIC (M. suipneumoniae HK(2)): 5.0 µg/mL; MIC (Past. haemolytica PA5; Past. haemolytica PA5, Diagnostic Sensitivity Test Agar, 18 hours at 37°C): 1.25 µg/mL; MIC (M. suipneumoniae Str. 11): 2.5 µg/mL; MIC (Sarcina lutea 8340): >100 µg/mL; MIC (Bacillus subtilis 6633): 0.5 µg/mL; MIC (Staph. aureus W2827): 1.0 µg/mL; MIC (E. coli ESS): 1.0 µg/mL; MIC [13]: 0.5 µg/mL; MIC [14]: 0.5 µg/mL; MIC (M. suipneumoniae TAM 6N): 10 µg/mL; MIC (S. typhimurium S18; S. typhimurium S18, Diagnostic Sensitivity Test Agar, 18 hours at 37°C): 80 µg/mL; MIC [15]: 5.0 µg/mL; MIC (M. hyorhinis ATCC 23234): 1.0 µg/mL; MIC (Strep. pyogenes B2788): 2.5 µg/mL; MIC (E. coli NCTC 10418 [16]; [19]): >100 µg/mL; MIC (Bord. bronchiseptica B08; Bord. bronchiseptica B08, Diagnostic Sensitivity Test Agar, 18 hours at 37°C): 40 µg/mL; MIC (S. dublin S7; S. dublin S7, Diagnostic Sensitivity Test Agar, 18 hours at 37°C): 80 µg/mL
